Results: patent publication US10760110B2, “Antibiotic testing and screening system” (priority 2017, dated 2020)
In brackets after ≈: the same amount, converted by molar mass. Like-named read-outs stand apart in the source and are kept apart here.

Tests used:
Settings in all cases: Klebsiella pneumoniae
[1] = system: K. pneumoniae NVT1001 strains with carbapenemase plasmids; assay: Etest MIC of β-lactams, OmpK35/36 loss, ΔramR and/or carbapenemase (Table 9); assay type: cell-based, Klebsiella pneumoniae
How it was run: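 Etest MICs, with values between standard dilutions rounded up to the next two-fold step, were measured in K. pneumoniae NVT1001 carrying PCR-cloned resistance genes on pACYC177 or pACYC184 plasmids. Interpretation used CLSI 2017 breakpoints, CLSI 2015 for cephalothin and EUCAST 2017 for moxifloxacin. For the blaOXA-48 strain, ceftazidime and cefotaxime were additionally tested by CLSI broth microdilution.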

[2] = system: K. pneumoniae NVT1001 ΔramRΔompK35/36 mutant and its revertants; assay: Etest MIC, ΔramRΔompK35/36 mutant and its revertants (Table 7); assay type: cell-based
[3] = system: K. pneumoniae NVT1001 and its ΔompK35/36 and/or ΔramR mutants; assay: Etest MIC, OmpK35/36 loss and AcrAB-TolC overexpression (ΔramR) strains (Table 6); assay type: cell-based, Klebsiella pneumoniae
How it was run: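 First, Etest determined each antibiotic's MIC, and intermediate results were adjusted upward to the next doubling dilution. Next, ceftazidime and cefotaxime were titrated in broth according to CLSI recommendations. Finally, results were interpreted with CLSI 2017 breakpoints, substituting CLSI 2015 for cephalothin and EUCAST 2017 for moxifloxacin.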

In the case of `C[C@@H](O)[C@H]1C(=O)N2C(C(=O)O)=C(S[C@@H]3CN[C@H](C(=O)N(C)C)C3)[C@H](C)[C@H]12` [Meropenem], the MIC ([1]; IMP-8 on pACYC177, WT (NVT1001), read-out: MIC) is reported as 2 µg/mL, the MIC ([1]; IMP-8 on pACYC177, Δ35 (ΔompK35 mutant)) is reported as 1 µg/mL and the MIC ([1]; IMP-8 on pACYC177, Δ35/36 (ΔompK35/36 mutant)) is reported as over 32 µg/mL. For the same compound, the MIC ([1]; IMP-8 on pACYC177, Δ36 (ΔompK36 mutant)) was 2 µg/mL, the MIC ([1]; IMP-8 on pACYC177, ΔramR mutant) was 2 µg/mL and the MIC ([1]; IMP-8 on pACYC177, ΔramRΔ35 (ΔramRΔompK35 mutant)) was 2 µg/mL. The MIC ([1]; IMP-8 on pACYC177, ΔramRΔ35/36 (ΔramRΔompK35/36 mutant)) was over 32 µg/mL, the MIC ([1]; IMP-8 on pACYC177, ΔramRΔ36 (ΔramRΔompK36 mutant)) was over 32 µg/mL and the MIC ([1]; KPC-2 on pACYC177, WT (NVT1001), read-out: MIC) was 32 µg/mL. For the same compound, the MIC ([1]; KPC-2 on pACYC177, Δ35 (ΔompK35 mutant)) was over 32 µg/mL, the MIC ([1]; KPC-2 on pACYC177, Δ35/36 (ΔompK35/36 mutant)) was over 32 µg/mL and the MIC ([1]; KPC-2 on pACYC177, Δ36 (ΔompK36 mutant)) was over 32 µg/mL. The MIC ([1]; KPC-2 on pACYC177, ΔramR mutant) was 32 µg/mL, the MIC ([1]; KPC-2 on pACYC177, ΔramRΔ35 (ΔramRΔompK35 mutant)) was over 32 µg/mL and the MIC ([1]; KPC-2 on pACYC177, ΔramRΔ35/36 (ΔramRΔompK35/36 mutant)) was over 32 µg/mL. The MIC ([1]; KPC-2 on pACYC177, ΔramRΔ36 (ΔramRΔompK36 mutant)) was over 32 µg/mL, the MIC ([1]; KPC-3 on pACYC177, WT (NVT1001), read-out: MIC) was 16 µg/mL and the MIC ([1]; KPC-3 on pACYC177, Δ35 (ΔompK35 mutant)) was 32 µg/mL. For the same compound, the MIC ([1]; KPC-3 on pACYC177, Δ35/36 (ΔompK35/36 mutant)) was over 32 µg/mL, the MIC ([1]; KPC-3 on pACYC177, Δ36 (ΔompK36 mutant)) was over 32 µg/mL and the MIC ([1]; KPC-3 on pACYC177, ΔramR mutant) was 32 µg/mL. The MIC ([1]; KPC-3 on pACYC177, ΔramRΔ35 (ΔramRΔompK35 mutant)) was over 32 µg/mL, the MIC ([1]; KPC-3 on pACYC177, ΔramRΔ35/36 (ΔramRΔompK35/36 mutant)) was over 32 µg/mL and the MIC ([1]; KPC-3 on pACYC177, ΔramRΔ36 (ΔramRΔompK36 mutant)) was over 32 µg/mL. It also gave an MIC ([1]; NDM-1 on pACYC177, WT (NVT1001), read-out: MIC) of 32 µg/mL, an MIC ([1]; NDM-1 on pACYC177, Δ35 (ΔompK35 mutant)) of 32 µg/mL and an MIC ([1]; NDM-1 on pACYC177, Δ35/36 (ΔompK35/36 mutant)) of over 32 µg/mL. The MIC ([1]; NDM-1 on pACYC177, Δ36 (ΔompK36 mutant)) was over 32 µg/mL, the MIC ([1]; NDM-1 on pACYC177, ΔramR mutant) was 32 µg/mL and the MIC ([1]; NDM-1 on pACYC177, ΔramRΔ35 (ΔramRΔompK35 mutant)) was 32 µg/mL. It also gave an MIC ([1]; NDM-1 on pACYC177, ΔramRΔ35/36 (ΔramRΔompK35/36 mutant)) of over 32 µg/mL, an MIC ([1]; NDM-1 on pACYC177, ΔramRΔ36 (ΔramRΔompK36 mutant)) of over 32 µg/mL and an MIC ([1]; OXA-48 on pACYC177, WT (NVT1001), read-out: MIC) of 2 µg/mL. The MIC ([1]; OXA-48 on pACYC177, Δ35 (ΔompK35 mutant)) was 2 µg/mL, the MIC ([1]; OXA-48 on pACYC177, Δ35/36 (ΔompK35/36 mutant)) was over 32 µg/mL and the MIC ([1]; OXA-48 on pACYC177, Δ36 (ΔompK36 mutant)) was 8 µg/mL. For the same compound, the MIC ([1]; OXA-48 on pACYC177, ΔramR mutant) was 2 µg/mL, the MIC ([1]; OXA-48 on pACYC177, ΔramRΔ35 (ΔramRΔompK35 mutant)) was 2 µg/mL and the MIC ([1]; OXA-48 on pACYC177, ΔramRΔ35/36 (ΔramRΔompK35/36 mutant)) was over 32 µg/mL. It also gave an MIC ([1]; OXA-48 on pACYC177, ΔramRΔ36 (ΔramRΔompK36 mutant)) of over 32 µg/mL, an MIC ([1]; VIM-1 on pACYC177, WT (NVT1001), read-out: MIC) of 16 µg/mL and an MIC ([1]; VIM-1 on pACYC177, Δ35 (ΔompK35 mutant)) of over 32 µg/mL. For the same compound, the MIC ([1]; VIM-1 on pACYC177, Δ35/36 (ΔompK35/36 mutant)) was over 32 µg/mL, the MIC ([1]; VIM-1 on pACYC177, Δ36 (ΔompK36 mutant)) was over 32 µg/mL and the MIC ([1]; VIM-1 on pACYC177, ΔramR mutant) was over 32 µg/mL. For the same compound, the MIC ([1]; VIM-1 on pACYC177, ΔramRΔ35 (ΔramRΔompK35 mutant)) was 32 µg/mL, the MIC ([1]; VIM-1 on pACYC177, ΔramRΔ35/36 (ΔramRΔompK35/36 mutant)) was over 32 µg/mL and the MIC ([1]; VIM-1 on pACYC177, ΔramRΔ36 (ΔramRΔompK36 mutant)) was over 32 µg/mL. It also gave an MIC ([1]; no supplemental plasmid, WT (NVT1001), read-out: MIC) of 0.06 µg/mL, an MIC ([1]; no supplemental plasmid, Δ35 (ΔompK35 mutant)) of 0.06 µg/mL and an MIC ([1]; no supplemental plasmid, Δ35/36 (ΔompK35/36 mutant)) of 0.5 µg/mL. It also gave an MIC ([1]; no supplemental plasmid, Δ36 (ΔompK36 mutant)) of 0.06 µg/mL, an MIC ([1]; no supplemental plasmid, ΔramR mutant) of 0.06 µg/mL and an MIC ([1]; no supplemental plasmid, ΔramRΔ35 (ΔramRΔompK35 mutant)) of 0.06 µg/mL. It also gave an MIC ([1]; no supplemental plasmid, ΔramRΔ35/36 (ΔramRΔompK35/36 mutant)) of 2 µg/mL, an MIC ([1]; no supplemental plasmid, ΔramRΔ36 (ΔramRΔompK36 mutant)) of 2 µg/mL and an MIC ([2]; ΔramRΔompK35/36::ompK35/36 revertant) of 0.06 µg/mL. The MIC ([2]; ΔramRΔompK35/36::ompK35 revertant) was 2 µg/mL, the MIC ([2]; ΔramRΔompK35/36::ompK36 revertant) was 0.06 µg/mL and the MIC ([2]; ΔramRΔompK35/36::ramR revertant) was 0.5 µg/mL. The MIC ([2]; ΔramRΔompK35/36::ramR::ompK35/36 revertant) was 0.125 µg/mL, the MIC ([2]; ΔramRΔompK35/36::ramR::ompK35 revertant) was 0.125 µg/mL and the MIC ([2]; ΔramRΔompK35/36::ramR::ompK36 revertant) was 0.125 µg/mL. For the same compound, the MIC ([2]; ΔramRΔompK35/36 mutant) was 2 µg/mL, the MIC ([3]; WT, NVT1001, read-out: MIC) was 0.06 µg/mL (≈ 0.156 µM) and the MIC ([3]; Δ35, ΔompK35 mutant) was 0.06 µg/mL (≈ 0.156 µM). The MIC ([3]; Δ35/36, ΔompK35/36 mutant) was 0.5 µg/mL (≈ 1.3 µM), the MIC ([3]; Δ36, ΔompK36 mutant) was 0.06 µg/mL (≈ 0.156 µM) and the MIC ([3]; ΔramR mutant) was 0.06 µg/mL (≈ 0.156 µM). For the same compound, the MIC ([3]; ΔramRΔ35, ΔramRΔompK35 mutant) was 0.06 µg/mL (≈ 0.156 µM), the MIC ([3]; ΔramRΔ35/36, ΔramRΔompK35/36 mutant) was 2 µg/mL (≈ 5.22 µM) and the MIC ([3]; ΔramRΔ36, ΔramRΔompK36 mutant) was 2 µg/mL (≈ 5.22 µM).
